Data published in publication doi:10.1101/2025.03.30.646192v1 (biorxiv, 2025).

biological target: T1, D2R (D2 dopamine receptor; HA-hDRD2-SmBiT) (Homo sapiens, UniProt P14416); experiment: competition with [3H]-raclopride, membranes; details: not given
T1 sequence (P14416 whole entry): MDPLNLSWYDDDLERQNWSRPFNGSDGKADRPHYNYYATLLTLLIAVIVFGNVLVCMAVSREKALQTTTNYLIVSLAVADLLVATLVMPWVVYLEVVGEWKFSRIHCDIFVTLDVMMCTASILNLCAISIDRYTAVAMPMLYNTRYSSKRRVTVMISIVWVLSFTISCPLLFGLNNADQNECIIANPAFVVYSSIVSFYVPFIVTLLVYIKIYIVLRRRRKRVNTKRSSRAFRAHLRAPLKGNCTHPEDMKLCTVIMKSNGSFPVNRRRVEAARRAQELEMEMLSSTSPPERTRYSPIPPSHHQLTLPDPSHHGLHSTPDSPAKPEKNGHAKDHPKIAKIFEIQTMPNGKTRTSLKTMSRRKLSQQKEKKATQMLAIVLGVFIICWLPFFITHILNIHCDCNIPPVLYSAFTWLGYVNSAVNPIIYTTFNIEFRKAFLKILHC

Structure (SMILES)	Ki
NCCc1cccc(O)c1 [m-tyramine]	1.86 µM
NC[C@H](O)c1ccc(O)c(O)c1 [noradrenaline]	9.55 µM
NCCc1ccc(O)cc1 [p-tyramine]	77.6 µM

biological target: T1, D2R (D2 dopamine receptor; HA-hDRD2-SmBiT); experiment: competition with [3H]-raclopride, membranes; details: not given; remark: another data set of the same source

Structure (SMILES)	Ki
CNC[C@H](O)c1ccc(O)c(O)c1 [adrenaline]	7.08 µM
NCC(O)c1ccccc1 (stereo not drawn) [hydroxyphenethylamine]	195 µM
CNCCc1ccc(O)c(O)c1 [methyldopamine]	0.0603 µM
CNCCc1ccccc1 [n-methyl-phenetylamine]	17 µM
NCC(O)c1cccc(O)c1 (stereo not drawn) [norphenylephrine]	17 µM
NC[C@H](O)c1ccc(O)cc1 [octopamine]	347 ± 60.1 µM
CNC[C@H](O)c1cccc(O)c1 [phenhyleprine]	15.1 µM
CNCC(O)c1ccc(O)cc1 (stereo not drawn) [synephrine]	87.1 µM

same assay, conditions: pH 7.4, RT, 10 mM MgCl2, orthosteric

Structure (SMILES)	Ki
NCCc1ccccc1 [phenetylamine]	4.73 ± 0.52 pKi
